Results published in patent publication US4198506A, “2-Carboxyalkyl-2,3-dihydro-6-mercapto-s-triazolo[4,3-b]-pyridazin-3-ones” (Bristol-Myers Company, priority 1979, dated 1980).
Values after ≈ are worked out from the molar mass of the structure shown. Values joined by “and” are separate entries in the source; they are usually repeats but may differ in a detail not shown here. Equal entries are not always repeated. Where two headings read alike, the source gives them in different places.

Legend:
[1] = tested on: Shig. dysenteriae; test: In vitro antibacterial activity (Steers' agar dilution MIC); type: cell-based; settings: Shigella dysenteriae
[2] = tested on: Miscellaneous (Salmonella, Shigella, Citrobacter); test: microbe, parasite or virus in culture; settings: read-out: Geometric Mean MIC
[3] = tested on: Sal. typhosa; test: In vitro antibacterial activity (Steers' agar dilution MIC); type: cell-based
Description: (§1) In vitro Antibacterial Activity of BB-S493 Compared with
(§2) BB-S479 and Cefamandole (Determined by Steers' Agar Dilu-
(§3) tion Method on Mueller-Hinton Agar Plate)
(§4) In vitro antibacterial activity of BB-S 525 compared with
(§5) BB-S 479 and cefamandole (determined by Steers' agar dilution
(§6) method on Mueller-Hinton agar plate)

[4] = tested on: Shig. flexneri; test: as above; type: cell-based
Description: as §1, §2, §3, §4, §5, §6

[5] = tested on: S. aureus; test: as above; type: cell-based; settings: Staphylococcus aureus
Description: as §1, §2, §3, §4, §5, §6

[6] = tested on: E. coli; test: as above; type: cell-based; settings: Escherichia coli
Description: as §1, §2, §3, §4, §5, §6

[7] = tested on: Kl. pneumoniae; test: as above; type: cell-based; settings: Klebsiella pneumoniae
Description: as §1, §2, §3, §4, §5, §6

[8] = tested on: Shig. sonnei; test: as above; type: cell-based; settings: Shigella sonnei
Description: as §1, §2, §3, §4, §5, §6

[9] = tested on: Proteus (indole-); test: In vitro activity (geometric mean MIC, serial dilution); type: cell-based; settings: read-out: Geometric Mean MIC
[10] = tested on: S. marcescens; test: as above; type: cell-based; settings: Serratia marcescens; 16 strains; Mueller-Hinton agar, inoculum 10^4 dilution; MIC cutoff 200 mcg./ml.; read-out: Geometric Mean MIC
[11] = tested on: Ps. aeruginosa; test: In vitro antibacterial activity (Steers' agar dilution MIC); type: cell-based
[12] = tested on: B. anthracis; test: microbe, parasite or virus in culture; type: cell-based; settings: Bacillus anthracis
[13] = tested on: S. aureus (Methicillin-R); test: In vitro activity (geometric mean MIC, serial dilution); type: cell-based; settings: Staphylococcus aureus; 15 strains; Mueller-Hinton agar, inoculum 10^4 dilution; MIC cutoff 200 mcg./ml.
[14] = tested on: S. aureus (sensitive); test: as above; type: cell-based; settings: Staphylococcus aureus, read-out: Geometric Mean MIC
[15] = tested on: E. coli (sensitive); test: as above; type: cell-based; settings: Escherichia coli; 13 strains; Mueller-Hinton agar, inoculum 10^4 dilution; MIC cutoff 200 mcg./ml.; read-out: Geometric Mean MIC
[16] = tested on: Klebsiella sp.; test: as above; type: cell-based; settings: 12 strains, Mueller-Hinton agar, inoculum 10^4 dilution, MIC cutoff 200 mcg./ml., read-out: Geometric Mean MIC
[17] = tested on: Pr. mirabilis; test: In vitro antibacterial activity (Steers' agar dilution MIC); type: cell-based; settings: Proteus mirabilis, read-out: MIC
[18] = tested on: Serr. marcescens; test: as above; type: cell-based; settings: Serratia marcescens
[19] = tested on: Enterobacter (sensitive); test: In vitro activity (geometric mean MIC, serial dilution); type: cell-based; settings: read-out: Geometric Mean MIC
[20] = tested on: S. aureus Smith; test: In vivo activity (Mice, sc); settings: several determinations listed
Description: |In vivo Activity of BB-[…] and Related Compounds (Mice, sc) | (PD50 (mgm./kg.)

[21] = tested on: S. aureus penicillinase+); test: In vitro activity (geometric mean MIC, serial dilution); type: cell-based; settings: Staphylococcus aureus, read-out: Geometric Mean MIC
[22] = tested on: S. pyogenes; test: as above; type: cell-based; settings: Streptococcus pyogenes; 10 strains; Mueller-Hinton agar, inoculum 10^4 dilution; MIC cutoff 200 mcg./ml.
[23] = tested on: Proteus (indole +); test: as above; type: cell-based; settings: 14 strains; Mueller-Hinton agar, inoculum 10^4 dilution; MIC cutoff 200 mcg./ml.; read-out: Geometric Mean MIC
[24] = tested on: Proteus (indole +, cephalosporinase +); test: as above; type: cell-based; settings: 5 strains; Mueller-Hinton agar, inoculum 10^4 dilution; MIC cutoff 200 mcg./ml.; read-out: Geometric Mean MIC
[25] = tested on: Enterobacter (Cephalosporinase +); test: as above; type: cell-based; settings: 7 strains, Mueller-Hinton agar, inoculum 10^4 dilution, MIC cutoff 200 mcg./ml.
[26] = tested on: Providencia sp.; test: as above; type: cell-based; settings: 5 strains, Mueller-Hinton agar, inoculum 10^4 dilution, MIC cutoff 200 mcg./ml., read-out: Geometric Mean MIC

In the case of CNCc1ccccc1CC(=O)N[C@@H]1C(=O)N2C(C(=O)O)=C(CSc3ccc4nn(CC(=O)O)c(=O)n4n3)CS[C@H]12 [BB-S479, 7-[o-(Methylaminomethyl)phenylacetamido]-3-(2-carboxymethyl-2,3-dihydro-s-triazolo[4,3-b]pyridazin-3-on-6-ylthiomethyl)-3-cephem-4-carboxylic Acid], the MIC ([1]; table 2 (BB-S493), Shig dysenteriae) is reported as 0.025 µg/mL (≈ 0.0417 µM), the MIC ([1]; table 4 (BB-S 525), Shig. dysenteriae) is reported as 0.1 µg/mL (≈ 0.167 µM) and the MIC [2] is reported as 0.4 µg/mL (≈ 0.667 µM). The MIC ([3]; table 2 (BB-S493), Sal. typhosa A9498) was 0.05 µg/mL (≈ 0.0834 µM), the MIC ([3]; table 4 (BB-S 525), Sal. typhosa) was 0.1 µg/mL (≈ 0.167 µM) and the MIC ([4]; Shigella flexneri, table 2 (BB-S493), Shig. flexneri A9684, read-out: MIC) was 12.5 µg/mL (≈ 20.8 µM). For the same compound, the MIC ([4]; table 4 (BB-S 525), Shig. flexneri) was 12.5 µg/mL (≈ 20.8 µM), the MIC ([5]; table 2 (BB-S493), S. aureus A9497) was 0.1 µg/mL (≈ 0.167 µM) and the MIC ([5]; table 2 (BB-S493), S. aureus BX-1633 A9606) was 0.4 µg/mL (≈ 0.667 µM). The MIC ([5]; table 2 (BB-S493), S. aureus Smith A9537) was 0.4 µg/mL (≈ 0.667 µM), the MIC ([5]; table 4 (BB-S 525), S. aureus (strain not given)) was 0.2 µg/mL (≈ 0.334 µM) and the MIC ([5]; table 4 (BB-S 525), S. aureus BX-1633) was 0.8 µg/mL (≈ 1.33 µM). It also gave an MIC ([5]; table 4 (BB-S 525), S. aureus Smith) of 0.4 µg/mL (≈ 0.667 µM), an MIC ([6]; ATCC8739, table 2 (BB-S493), E. coli ATCC 8739, read-out: MIC) of 0.05 µg/mL (≈ 0.0834 µM) and an MIC ([6]; ATCC8739, table 4 (BB-S 525), E. coli ATCC 8739) of 3.1 µg/mL (≈ 5.17 µM). For the same compound, the MIC ([6]; table 2 (BB-S493), E. coli A9660, read-out: MIC) was 0.05 µg/mL (≈ 0.0834 µM), the MIC ([6]; table 2 (BB-S493), E. coli A15147, read-out: MIC) was 3.1 µg/mL (≈ 5.17 µM) and the MIC ([6]; table 2 (BB-S493), E. coli A15810, read-out: MIC) was 0.1 µg/mL (≈ 0.167 µM). The MIC ([6]; table 2 (BB-S493), E. coli BX-1373, read-out: MIC) was 0.2 µg/mL (≈ 0.334 µM), the MIC ([6]; table 2 (BB-S493), E. coli Juhl A15119, read-out: MIC) was 0.1 µg/mL (≈ 0.167 µM) and the MIC ([6]; table 2 (BB-S493), E. coli NIHJ, read-out: MIC) was 0.05 µg/mL (≈ 0.0834 µM). The MIC ([6]; table 4 (BB-S 525), E. coli BX-1373, read-out: MIC) was 0.2 µg/mL (≈ 0.334 µM), the MIC ([6]; table 4 (BB-S 525), E. coli Juhl, read-out: MIC) was 0.2 µg/mL (≈ 0.334 µM) and the MIC ([6]; table 4 (BB-S 525), E. coli NIHJ, read-out: MIC) was 0.1 µg/mL (≈ 0.167 µM). It also gave an MIC ([6]; table 4 (BB-S 525), E. coli, strain not given, 1st line, read-out: MIC) of 0.1 µg/mL (≈ 0.167 µM), an MIC ([6]; table 4 (BB-S 525), E. coli, strain not given, 2nd line, read-out: MIC) of 0.05 µg/mL (≈ 0.0834 µM) and an MIC ([6]; table 4 (BB-S 525), E. coli, strain not given, 3rd line, read-out: MIC) of 3.1 µg/mL (≈ 5.17 µM). The MIC ([7]; table 2 (BB-S493), Kl. pneumoniae A9678) was 0.4 µg/mL (≈ 0.667 µM), the MIC ([7]; table 2 (BB-S493), Kl. pneumoniae A9867) was 0.1 µg/mL (≈ 0.167 µM) and the MIC ([7]; table 2 (BB-S493), Kl. pneumoniae A9977) was 0.1 µg/mL (≈ 0.167 µM). For the same compound, the MIC ([7]; table 2 (BB-S493), Kl. pneumoniae A15130) was 0.1 µg/mL (≈ 0.167 µM), the MIC ([7]; table 4 (BB-S 525), Kl. pneumoniae, 1st line) was 0.8 µg/mL (≈ 1.33 µM) and the MIC ([7]; table 4 (BB-S 525), Kl. pneumoniae, 2nd line) was 0.1 µg/mL (≈ 0.167 µM). For the same compound, the MIC ([7]; table 4 (BB-S 525), Kl. pneumoniae, 3rd line) was 0.2 µg/mL (≈ 0.334 µM), the MIC ([7]; table 4 (BB-S 525), Kl. pnuemoniae, 4th line) was 0.2 µg/mL (≈ 0.334 µM) and the MIC ([8]; table 2 (BB-S493), Shig. sonnei A9516) was 0.025 µg/mL (≈ 0.0417 µM). For the same compound, the MIC ([8]; table 4 (BB-S 525), Shig. sonnei) was 0.1 µg/mL (≈ 0.167 µM), the MIC [9] was 0.5 µg/mL (≈ 0.834 µM) and the MIC [10] was 35 µg/mL (≈ 58.4 µM). The MIC ([11]; Pseudomonas aeruginosa, table 2 (BB-S493), Ps. aeruginosa A9843, read-out: MIC) was > 100 µg/mL, the MIC ([11]; table 2 (BB-S493), Ps. aerugionsa A9930) was > 100 µg/mL and the MIC ([11]; table 4 (BB-S 525), Ps. aeruginosa, 1st line) was > 100 µg/mL. The MIC ([11]; table 4 (BB-S 525), Ps. aeruginosa, 2nd line) was > 100 µg/mL, the MIC ([12]; table 2 (BB-S493), B. anthracis A9504) was 0.025 µg/mL (≈ 0.0417 µM) and the MIC ([12]; table 4 (BB-S 525), B. anthracis) was 0.2 µg/mL (≈ 0.334 µM). The MIC [13] was 35 µg/mL (≈ 58.4 µM), the MIC [14] was 0.3 µg/mL (≈ 0.5 µM) and the MIC [15] was 0.2 µg/mL (≈ 0.334 µM). For the same compound, the MIC [16] was 0.6 µg/mL (≈ 1 µM), the MIC ([17]; table 2 (BB-S493), Pr. mirabilis A9554) was 0.1 µg/mL (≈ 0.167 µM) and the MIC ([17]; table 2 (BB-S493), Pr. mirabilis A9900) was 0.1 µg/mL (≈ 0.167 µM). For the same compound, the MIC ([17]; table 4 (BB-S 525), Pr. mirabilis, 1st line) was 0.1 µg/mL (≈ 0.167 µM), the MIC ([17]; table 4 (BB-S 525), Pr. mirabilis, 2nd line) was 0.1 µg/mL (≈ 0.167 µM) and the MIC ([18]; table 4 (BB-S 525), Serr. marcescens) was 12.5 µg/mL (≈ 20.8 µM). It also gave an MIC ([18]; table 2 (BB-S493), Serr. marcescens A20019, read-out: MIC) of 25 µg/mL (≈ 41.7 µM), an MIC [19] of 0.5 µg/mL (≈ 0.834 µM) and an ED50 ([20]; Staphylococcus aureus, read-out: PD50) of 0.16 mg/kg. For the same compound, the PD50 [20] was 0.12 mgm./kg. and 0.2 mgm./kg, the MIC [21] was 0.9 µg/mL (≈ 1.5 µM) and the MIC [22] was 0.04 µg/mL (≈ 0.0667 µM). For the same compound, the MIC [23] was 0.2 µg/mL (≈ 0.334 µM), the MIC [24] was 4.8 µg/mL (≈ 8 µM) and the MIC [25] was 2.1 µg/mL (≈ 3.5 µM). The MIC [26] was 4.2 µg/mL (≈ 7 µM).
